These results are taken from ChEMBL document CHEMBL1159254, “Isolation and structure of two novel muscarinic receptor antagonists” (J Nat Prod, 1995).

Assay [1] addresses T1, Muscarinic acetylcholine receptor M1 (Homo sapiens, UniProt P11229).
T1 sequence (P11229 whole entry): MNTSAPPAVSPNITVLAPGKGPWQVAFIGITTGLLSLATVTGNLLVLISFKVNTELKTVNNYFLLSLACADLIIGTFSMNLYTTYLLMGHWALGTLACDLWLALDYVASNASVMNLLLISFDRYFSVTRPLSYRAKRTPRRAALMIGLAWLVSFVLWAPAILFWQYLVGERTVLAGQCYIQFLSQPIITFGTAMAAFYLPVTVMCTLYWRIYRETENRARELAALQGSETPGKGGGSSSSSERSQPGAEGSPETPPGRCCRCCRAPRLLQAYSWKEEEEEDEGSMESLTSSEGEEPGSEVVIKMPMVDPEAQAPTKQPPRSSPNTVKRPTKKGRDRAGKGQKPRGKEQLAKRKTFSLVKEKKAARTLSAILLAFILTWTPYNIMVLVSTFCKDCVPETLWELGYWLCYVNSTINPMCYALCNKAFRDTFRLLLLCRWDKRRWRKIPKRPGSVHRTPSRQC
Put plainly: Displacement of QNB from muscarinic M1 receptor.

Assay [2] addresses T2, Muscarinic acetylcholine receptor M2 (Homo sapiens, UniProt P08172).
T2 sequence (P08172 whole entry): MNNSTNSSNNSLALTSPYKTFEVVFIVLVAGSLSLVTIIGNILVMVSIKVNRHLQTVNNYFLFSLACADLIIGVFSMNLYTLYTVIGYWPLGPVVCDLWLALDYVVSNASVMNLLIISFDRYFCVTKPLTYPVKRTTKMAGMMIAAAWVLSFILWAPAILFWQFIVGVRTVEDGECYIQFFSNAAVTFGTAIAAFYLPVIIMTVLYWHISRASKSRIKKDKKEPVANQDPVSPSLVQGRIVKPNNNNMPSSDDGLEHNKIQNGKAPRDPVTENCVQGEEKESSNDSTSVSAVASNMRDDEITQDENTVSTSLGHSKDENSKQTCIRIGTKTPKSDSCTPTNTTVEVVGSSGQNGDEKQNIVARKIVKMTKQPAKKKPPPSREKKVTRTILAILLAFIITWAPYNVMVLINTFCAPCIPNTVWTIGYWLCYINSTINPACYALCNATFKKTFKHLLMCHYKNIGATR
Description: Displacement of QNB from muscarinic M2 receptor.

Assay [3] deals with T3, Muscarinic acetylcholine receptor M4 (Homo sapiens, UniProt P08173).
T3 sequence (P08173 whole entry): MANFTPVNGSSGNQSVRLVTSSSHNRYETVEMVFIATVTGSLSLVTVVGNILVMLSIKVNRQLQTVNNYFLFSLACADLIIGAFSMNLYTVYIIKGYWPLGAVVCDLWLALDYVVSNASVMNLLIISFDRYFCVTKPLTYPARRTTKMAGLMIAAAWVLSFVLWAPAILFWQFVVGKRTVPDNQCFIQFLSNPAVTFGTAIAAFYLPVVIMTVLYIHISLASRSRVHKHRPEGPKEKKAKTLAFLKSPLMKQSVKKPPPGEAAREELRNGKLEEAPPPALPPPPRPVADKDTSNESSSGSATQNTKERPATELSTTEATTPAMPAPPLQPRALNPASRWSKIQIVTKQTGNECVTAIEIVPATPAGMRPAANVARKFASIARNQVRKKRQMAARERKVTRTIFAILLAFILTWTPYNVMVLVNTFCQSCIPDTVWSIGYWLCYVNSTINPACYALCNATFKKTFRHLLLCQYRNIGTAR
Description: Displacement of QNB from muscarinic M4 receptor.

For the molecule `NC(N)=NCCCCCCCCC(=O)C(N)CCCN=C(N)N` (stereo unspecified), the IC50 in assay [1] turned out to be 7 nM; in assay [2], 6 nM; in assay [3], 10 nM.
The matching figures for `CC(=O)NC(CCCNC(=N)N)C(=O)CCCCCCCCNC(=N)N` (stereo unspecified): 1410 nM, 960 nM and 910 nM.

The IC50 is the midpoint of a concentration-inhibition curve. Lower therefore signals inhibition by little substance.
